Reference: US8987449B2, “Medicine for treating ischemic brain injury and its sequelae, and preparation method thereof” (Haimin Lei, priority 2011, dated 2015)

Experiments:
Assay type in all cases: in vivo, rat
[1] = test system: MCAO rats; experiment: Tactile stimulus experiment (time of MCAO rats removing the tape); details: for time of removing the tape, Evaluation (3 d): model group 244.29 ± 95.46; for time of removing the tape, Evaluation (7 d): model group 221.53 ± 105.33
Description: 140 healthy SD male rats, weighing 280-300 g, provided by Beijing Vital River Laboratories, certificate No.: SCXK (Jing) 2002-2003. The method of [Koizumi J, Yoshida […]. Experimental studies of ischemia brain edema, I: A new experimental model of cerebral embolism in rats in which recirculation can be introduced in the ischemic area[J]. […] After the rats were anesthetized and the skin thereof was disinfected by ethanol. By cutting right in the middle of the neck, the right common carotid artery, internal carotid artery and external carotid artery were separated and the common carotid artery and external carotid artery were ligated. The internal carotid artery was clamped with a bulldog clamp. A cut was made at the crotch of the external carotid artery and the internal carotid artery followed by releasing the bulldog clamp. […] Next, the external carotid artery was ligated and the nylon wire was fixed. In sham operation group, the right common carotid artery, the external carotid artery and the internal carotid artery were only exposed and separated. The rats were routinely raised in different cages. 0.5 ml penicillin was continuously injected into every mouse for three days after the surgery. […] The rats getting 1-3 point were selected for the subsequent experiment. The MCAO rats having the same point were distributed randomly and averagely to each experimental group. […] Evaluated was the executive function change of side forelimb sense and fine motor movement after the cerebral ischemia. […] The third and the seventh days after the administration were set as the observation time to carry out the test. The SPSS 11.0 software pack was used to carry out the statistical analysis of all the data. The comparison of the enumeration data was carried out with X^2 test P<0.05 had statistical meaning.

[2] = test system: SOD; experiment: SOD of MCAO rats (brain homogenate, kit); details: model group 40.28 ± 7.51
Description: 10% chloral hydrate 0.35 g/kg was injected into the abdominal cavity of a rat to anesthetize thereof. The rat was fixed as supine position. The skin was disinfected thereof by 75% medical alcohol. It was cut right in the middle of the neck. The right common carotid artery, internal carotid artery and external carotid artery were separated and the common carotid artery and external carotid artery were ligated. The internal carotid artery was clamped with a bulldog clamp. A cut was made at the crotch of the external carotid artery and the internal carotid artery followed by releasing the bulldog clamp. The nylon wire (diameter 0.25 mm, marked at a distance of 18 mm from the head end) was inserted into the cut and the insertion was stopped when some resistance was felt. The insert depth was a little longer than 18 mm to achieve the cerebral ischemia caused by middle cerebral artery occlusion. The internal carotid artery was ligated and the nylon wire was fixed. The muscle and skin were sutured layer by layer. In sham operation group, the right common carotid artery, the external carotid artery and the internal carotid artery were only exposed and separated. The rats were conventionally raised in different cages regularly. 0.5 ml penicillin was continuously injected into every rat for three days after the surgery.
The rats were divided into 7 groups in the experiment, that is, sham operation group, model group, Nimodipine group, LQC-T4 large dosage group, LQC-T4 small dosage group, TMP group, and TMP+Vanillic acid group. The model rats getting 1 point were distributed randomly into the model group and other administration group, while the rats getting 2 point and 3 point were distributed randomly into above 6 groups according the above method and sham operation group was not involved in the above grouping. 0.5% CMC-NA (1 ml·100 g^−1) was administrated intragastrically to the blank control group and the model group, two dosage group of 120 mg·kg^−1, 60 mg·kg^−1 were administrated intragastrically to the LQC-T4 (1 ml·100 g^−1) group, and 74 mg·kg^−1 TMP+46 mg·kg^−1 vanillitc acid (1 ml·100 g^−1) were administrated intragastrically, once per day continuously for 10 days.
10% chloral hydrate 0.35 g/kg was injected into the abdominal cavity to anesthetize them after the rats were administrated for 10 days. The head was cut and the brain was taken. The cranial bones were stripped, the meninges were peeled off to separate the ischemia side of the brain, the blood streak was striped and then the brain was weighed. 4 times amount of 0.9 physiological saline was added and the brain was homogenized in 0° C. ice bath. […]
It was detected with 722 type visible spectrophotometer according to the kit operation. […]

[3] = test system: MCAO rats; experiment: Beam walking test of MCAO rats; details: 0-6 points; for beam walking Evaluation (3 d): model group 1.47 ± 0.84; for beam walking Evaluation (7 d): model group 1.92 ± 2.02
Description: 140 healthy SD male rats, weighing 280-300 g, provided by Beijing Vital River Laboratories, certificate No.: SCXK (Jing) 2002-2003. The method of [Koizumi J, Yoshida […]. Experimental studies of ischemia brain edema, I: A new experimental model of cerebral embolism in rats in which recirculation can be introduced in the ischemic area[J]. […] After the rats were anesthetized and the skin thereof was disinfected by ethanol. By cutting right in the middle of the neck, the right common carotid artery, internal carotid artery and external carotid artery were separated and the common carotid artery and external carotid artery were ligated. The internal carotid artery was clamped with a bulldog clamp. A cut was made at the crotch of the external carotid artery and the internal carotid artery followed by releasing the bulldog clamp. […] Next, the external carotid artery was ligated and the nylon wire was fixed. In sham operation group, the right common carotid artery, the external carotid artery and the internal carotid artery were only exposed and separated. The rats were routinely raised in different cages. 0.5 ml penicillin was continuously injected into every mouse for three days after the surgery. […] The rats getting 1-3 point were selected for the subsequent experiment. The MCAO rats having the same point were distributed randomly and averagely to each experimental group. […] Beam walking test was used to evaluate the motor coordination and the integration defect after the cerebral ischemia damage. […] There was a dark box attached to one end of the beam and the rats were stimulated by noise to walk through the beam into the dark box. […] The rats were trained before the ischemia for 5 days until all the rats can get 6 point. The third and the seventh days after administration was set as the observation time to carry out the test. The SPSS 11.0 software pack was used to carry out the statistical analysis of all the data. The comparison of the enumeration data was carried out with X^2 test P<0.05 had statistical meaning.

[4] = 60 mg/kg intragastrically once a day
[5] = 120 mg/kg intragastrically once a day

## Cc1nc(C)c(C)nc1C [TMP, tetramethylpyrazine, reference compound]
[1]; 37 mg/kg once a day
  time of removing the tape, Evaluation (3 d): 200.43 ± 117.81 s
  time of removing the tape, Evaluation (7 d): 211.35 ± 111.15 s
[2]; 37 mg/kg once per day for 10 days
  SOD: 61.58 ± 16.23
[3]; 37 mg/kg once a day
  beam walking Evaluation (3 d): 2.86 ± 1.79
  beam walking Evaluation (7 d): 2.40 ± 2.32

## COCCOC(=O)C1=C(C)NC(C)=C(C(=O)OC(C)C)C1c1cccc([N+](=O)[O-])c1 (centres unmarked) [Nimodipine, reference compound]
[1]; 30 mg/kg once a day
  time of removing the tape, Evaluation (3 d): 211.13 ± 116.65 s
  time of removing the tape, Evaluation (7 d): 183.93 ± 124.50 s
[2]; 30 mg/kg once per day for 10 days
  SOD: 79.85 ± 36.57
[3]; 30 mg/kg once a day
  beam walking Evaluation (3 d): 2.71 ± 1.49
  beam walking Evaluation (7 d): 3.50 ± 1.71

## COc1cc(C(=O)OCc2nc(C)c(C)nc2C)ccc1OCc1nc(C)c(C)nc1C [LQC-T4, (3,5,6-trimethylpyrazine-2-yl)methyl 3-methoxy-4-((3,5,6-trimethylpyrazine-2-yl)methoxy) benzoate]
[1]; [4]
  time of removing the tape, Evaluation (3 d): 181.31 ± 133.40 s
  time of removing the tape, Evaluation (7 d): 175.80 ± 139.06 s
[1]; [5]
  time of removing the tape, Evaluation (3 d): 222.64 ± 104.45 s
  time of removing the tape, Evaluation (7 d): 245.95 ± 98.23 s
[2]; 60 mg/kg intragastrically once per day for 10 days
  SOD: 75.29 ± 30.08
[2]; 120 mg/kg intragastrically once per day for 10 days
  SOD: 85.03 ± 56.03
[3]; [4]
  beam walking Evaluation (3 d): 3.6 ± 1.76
  beam walking Evaluation (7 d): 3.83 ± 1.70
[3]; [5]
  beam walking Evaluation (3 d): 2.88 ± 1.62
  beam walking Evaluation (7 d): 3.20 ± 1.66
